# Measured values: ChEMBL document CHEMBL1201862, “PubChem BioAssay data set” (2004)
# Calls of active or inactive are those of the source.
# Legend:
# [1] = target: Tyrosine-protein phosphatase non-receptor type 7 (Homo sapiens, UniProt P35236); assay: redox-dependent HePTP inhibition, mechanism study, biochemical, fluorescence (AID 2068); type: functional
# [2] = target: Dual specificity protein phosphatase 6 (Rattus norvegicus, UniProt Q64346); type: functional;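 also: confirmatory in vitro dose-response testing of MKP-3 inhibition; recombinant His-tagged MKP-3 made in E. coli BL21 with OMFP substrate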
# Escherichia coli [3] = assay: microbe, parasite or virus in culture
# Escherichia coli [4] = assay: microbe, parasite or virus in culture; remark: listed apart in the source
# Candida albicans = assay: reversal of fluconazole resistance in C. albicans, dose response, CaCi-2 strain, Alamar Blue, dry powder, set 3 (AID 488907); type: functional, organism-based
# [5] = SFLLRN-induced P-Selectin Platelet Surface Expression Measured in Cell-Based System Using Flow Cytometry - 2016-03_Inhibitor_Dose_DryPowder_Activity_Set3. [Related pubchem assays (depositor defined):AID1678]; type: functional
# [6] = Luminescence Cell-Based Dose Response Follow up to Identify Inhibitors of Platelet Dense Granule Release. [Related pubchem assays (depositor defined):AID1663, AID1678, AID1889, AID2519]; type: functional
# Sequence of Dual specificity protein phosphatase 6 (Q64346 whole entry): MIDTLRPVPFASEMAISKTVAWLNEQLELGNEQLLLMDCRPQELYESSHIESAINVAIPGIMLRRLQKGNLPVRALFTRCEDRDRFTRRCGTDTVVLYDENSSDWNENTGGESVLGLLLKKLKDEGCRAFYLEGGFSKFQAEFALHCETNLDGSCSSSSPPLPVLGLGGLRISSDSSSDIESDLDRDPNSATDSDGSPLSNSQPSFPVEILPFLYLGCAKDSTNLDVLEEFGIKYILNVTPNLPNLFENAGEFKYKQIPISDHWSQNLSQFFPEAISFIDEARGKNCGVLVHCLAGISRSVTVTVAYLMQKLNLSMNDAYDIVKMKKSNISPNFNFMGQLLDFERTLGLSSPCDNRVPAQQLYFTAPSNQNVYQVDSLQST
# Sequence of Tyrosine-protein phosphatase non-receptor type 7 (P35236 whole entry): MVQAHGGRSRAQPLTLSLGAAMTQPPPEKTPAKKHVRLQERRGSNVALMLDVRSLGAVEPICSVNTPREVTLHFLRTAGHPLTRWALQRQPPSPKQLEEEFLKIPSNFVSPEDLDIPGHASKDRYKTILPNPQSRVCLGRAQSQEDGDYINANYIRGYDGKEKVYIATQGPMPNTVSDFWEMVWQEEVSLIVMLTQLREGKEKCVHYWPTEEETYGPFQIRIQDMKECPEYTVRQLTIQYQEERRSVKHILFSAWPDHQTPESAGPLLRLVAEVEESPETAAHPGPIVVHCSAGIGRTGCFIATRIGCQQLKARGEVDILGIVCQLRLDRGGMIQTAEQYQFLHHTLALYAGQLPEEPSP
compound,measurement,setting,value
COc1cc(C(=S)NCc2ccc(F)c(C)c2)ccc1O,IC50,[1],4.33 µM (active)
same,IC50,[2],> 100 µM (inactive)
COc1ccc(C)cc1S(=O)(=O)N(C)CC(=O)N1CCC(C(N)=O)CC1,AC50,Escherichia coli [3],25.7 µM (active)
same,AC50,Escherichia coli [4],> 380 µM (inactive)
COc1cccnc1N1CCN(C(=O)c2ccc(Cl)cc2)CC1,AC50,Candida albicans,12.3 µM (active)
CC(=O)Nc1ccc(NC(=O)c2ccccc2Br)cc1,AC50,[5],6.02 µM (active)
same,EC50,[6],8.7 µM (active)
